Series [1] is described as follows: Drug uptake in potassium oxonate treated Sprague-Dawley rat hyperuricemic model limb at 22 to 30 MBq, iv after 65 to 70 mins by PET analysis. The series is classed as ADME, organism-based. As to conditions: in vivo; call rule not given here.
Series [2] has as its system Blood. Nature of the series: Ratio of drug uptake in potassium oxonate treated Sprague-Dawley rat hyperuricemic model blood at 22 to 30 MBq, iv after 65 to 70 mins to drug uptake in normal rat. The series is classed as ADME, organism-based. Particulars: in vivo.
The test system of a further series is Rattus norvegicus. Nature of the series: Ratio of drug uptake in potassium oxonate treated Sprague-Dawley rat hyperuricemic model at 22 to 30 MBq, iv after 60 mins to drug uptake in normal rat. The series is classed as ADME, organism-based. Particulars: in vivo, 1 h.
Series [3] relates to Blood. The series is described as follows: Metabolic stability in Sprague-Dawley rat blood assessed as formation of [11C][…] metabolite at 22 to 30 MBq, iv after 30 mins by radiometric HPLC analysis. Particulars: in vivo, 0.5 h. The series is classed as ADME, organism-based.
Series [4] is described as follows: Metabolic stability in potassium oxonate treated Sprague-Dawley rat hyperuricemic model blood assessed as compound remaining at 22 to 30 MBq, iv after 30 mins by radiometric HPLC analysis. The series is classed as ADME, organism-based. Particulars: read-out: Stability.
Series [5] relates to Blood. Nature of the series: Drug uptake in potassium oxonate treated Sprague-Dawley rat hyperuricemic model blood at 22 to 30 MBq, iv after 60 mins by gamma counting. As to conditions: in vivo, 1 h.

As for `O=c1[nH]c(=O)c2[nH][11c](=O)[nH]c2[nH]1`, the Drug uptake entry is “Active” in series [1] and 0.57 %ID in the series with Blood [5]. For the same compound, the results for the Ratio in the series on Blood [2] and with Rattus norvegicus were 1.6 and 1.7, respectively. The Stability entry in the series on Blood [3] is listed as “Unstable”. In addition, the remaining at 0.5 h in series [4] came out at 100%.

The values are drawn from ChEMBL document CHEMBL1949588, “Synthesis of [¹¹C]uric acid, using [¹¹C]phosgene, as a possible biomarker in PET imaging for diagnosis of gout” (Bioorg Med Chem Lett, 2012).
